Data as given in PubChem BioAssay AID248 (DTP/NCI, 2004).
Where “and” joins values, the source holds several entries; their conditions need not be identical. Equal entries are not always repeated. Toxic doses and inconclusive results are not listed.

System: L1210 leukemia ip in BDF1 mice, survival T/C
Test: NCI In Vivo Anticancer Drug Screen. Data for tumor model L1210 Leukemia (intraperitoneal) in B6D2F1 (BDF1) mice
Conditions: endpoint: mean survival time, higher = longer survival
Summary of the method: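 Transplanted-tumor mice were given test agent; controls received vehicle only. Survival readings from the two groups were divided (treated over control).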

[1] = dose: 100.0 mg/kg/injection, schedule: Q01DX001 (ip), vehicle: carboxymethylcellulose (CMC)
[2] = dose: 100.0 mg/kg/injection, schedule: Q01DX001 (ip), vehicle: saline
[3] = dose: 100.0 mg/kg/injection, schedule: Q01DX009 (ip), vehicle: Klucel (hydroxypropylcellulose) (HPC)
[4] = dose: 200.0 mg/kg/injection, schedule: Q01DX001 (ip), vehicle: carboxymethylcellulose (CMC)
[5] = dose: 200.0 mg/kg/injection, schedule: Q01DX001 (ip), vehicle: saline
[6] = dose: 200.0 mg/kg/injection, schedule: Q01DX009 (ip), vehicle: Klucel (hydroxypropylcellulose) (HPC)
[7] = dose: 400.0 mg/kg/injection, schedule: Q01DX001 (ip), vehicle: carboxymethylcellulose (CMC)
[8] = dose: 400.0 mg/kg/injection, schedule: Q01DX009 (ip), vehicle: Klucel (hydroxypropylcellulose) (HPC)

In the case of `Cc1c(O)ccc(=O)n1O`, the T/C (dose: 10.4 mg/kg/injection, schedule: Q03HX024 (ip), vehicle: Klucel (hydroxypropylcellulose) (HPC)) was 97 % of control, the T/C (dose: 12.0 mg/kg/injection, schedule: Q01DX009 (ip), vehicle: Klucel (hydroxypropylcellulose) (HPC)) was 107 % of control and the T/C (dose: 15.6 mg/kg/injection, schedule: Q03HX024 (ip), vehicle: Klucel (hydroxypropylcellulose) (HPC)) was 96 % of control. The T/C (dose: 22.8 mg/kg/injection, schedule: Q03HX024 (ip), vehicle: Klucel (hydroxypropylcellulose) (HPC)) was 93 % of control, the T/C (dose: 24.0 mg/kg/injection, schedule: Q01DX009 (ip), vehicle: Klucel (hydroxypropylcellulose) (HPC)) was 102 % of control and the T/C (dose: 34.8 mg/kg/injection, schedule: Q03HX024 (ip), vehicle: Klucel (hydroxypropylcellulose) (HPC)) was 98 % of control. The T/C (dose: 48.0 mg/kg/injection, schedule: Q01DX009 (ip), vehicle: Klucel (hydroxypropylcellulose) (HPC)) was 107 % of control, the T/C (dose: 49.0 mg/kg/injection, schedule: Q01DX Z (ip), vehicle: carboxymethylcellulose (CMC)) was 109 % of control and the T/C (dose: 49.0 mg/kg/injection, schedule: Q01DX Z (ip), vehicle: methylcellulose (MC)) was 100 % of control and 110 % of control. For the same compound, the T/C (dose: 52.0 mg/kg/injection, schedule: Q01DX009 (ip), vehicle: Klucel (hydroxypropylcellulose) (HPC)) was 103 % of control, the T/C (dose: 52.0 mg/kg/injection, schedule: Q03HX024 (ip), vehicle: Klucel (hydroxypropylcellulose) (HPC)) was 100 % of control and 105 % of control and the T/C (dose: 62.0 mg/kg/injection, schedule: Q03HX024 (ip), vehicle: saline with Tween-80) was 92 % of control. The T/C (dose: 73.0 mg/kg/injection, schedule: Q01DX Z (ip), vehicle: carboxymethylcellulose (CMC)) was 111 % of control, the T/C (dose: 73.0 mg/kg/injection, schedule: Q01DX Z (ip), vehicle: methylcellulose (MC)) was 93 % of control and the T/C (dose: 89.0 mg/kg/injection, schedule: Q01DX001 (ip), vehicle: carboxymethylcellulose (CMC)) was 106 % of control. For the same compound, the T/C (dose: 96.0 mg/kg/injection, schedule: Q03HX024 (ip), vehicle: Klucel (hydroxypropylcellulose) (HPC)) was 100 % of control, the T/C [1] was 113 % of control and the T/C [2] was 112 % of control. The T/C [3] was 115 % of control, the T/C (dose: 100.0 mg/kg/injection, schedule: Q04DX003 (ip), vehicle: acetone) was 108 % of control and the T/C (dose: 104.0 mg/kg/injection, schedule: Q01DX001 (ip), vehicle: Klucel (hydroxypropylcellulose) (HPC)) was 103 % of control. For the same compound, the T/C (dose: 104.0 mg/kg/injection, schedule: Q04DX003 (ip), vehicle: Klucel (hydroxypropylcellulose) (HPC)) was 95 % of control, the T/C (dose: 110.0 mg/kg/injection, schedule: Q01DX Z (ip), vehicle: carboxymethylcellulose (CMC)) was 151 % of control and the T/C (dose: 110.0 mg/kg/injection, schedule: Q01DX Z (ip), vehicle: methylcellulose (MC)) was 94 % of control. For the same compound, the T/C (dose: 110.0 mg/kg/injection, schedule: Q01DX Z (ip), vehicle: saline) was 102 % of control, the T/C (dose: 125.0 mg/kg/injection, schedule: Q03HX024 (ip), vehicle: saline with Tween-80) was 102 % of control and the T/C (dose: 156.0 mg/kg/injection, schedule: Q01DX001 (ip), vehicle: Klucel (hydroxypropylcellulose) (HPC)) was 97 % of control. The T/C (dose: 156.0 mg/kg/injection, schedule: Q04DX003 (ip), vehicle: Klucel (hydroxypropylcellulose) (HPC)) was 103 % of control, the T/C (dose: 165.0 mg/kg/injection, schedule: Q01DX Z (ip), vehicle: carboxymethylcellulose (CMC)) was 152 % of control and the T/C (dose: 165.0 mg/kg/injection, schedule: Q01DX Z (ip), vehicle: methylcellulose (MC)) was 122 % of control. The T/C (dose: 165.0 mg/kg/injection, schedule: Q01DX Z (ip), vehicle: saline) was 104 % of control, the T/C [4] was 112 % of control and the T/C [5] was 107 % of control. The T/C [6] was 108 % of control, the T/C (dose: 200.0 mg/kg/injection, schedule: Q04DX003 (ip), vehicle: acetone) was 107 % of control and the T/C (dose: 228.0 mg/kg/injection, schedule: Q01DX001 (ip), vehicle: Klucel (hydroxypropylcellulose) (HPC)) was 101 % of control. For the same compound, the T/C (dose: 228.0 mg/kg/injection, schedule: Q04DX003 (ip), vehicle: Klucel (hydroxypropylcellulose) (HPC)) was 98 % of control, the T/C (dose: 300.0 mg/kg/injection, schedule: Q01DX001 (ip), vehicle: carboxymethylcellulose (CMC)) was 112 % of control and the T/C (dose: 348.0 mg/kg/injection, schedule: Q01DX001 (ip), vehicle: Klucel (hydroxypropylcellulose) (HPC)) was 108 % of control. For the same compound, the T/C (dose: 348.0 mg/kg/injection, schedule: Q04DX003 (ip), vehicle: Klucel (hydroxypropylcellulose) (HPC)) was 104 % of control, the T/C [7] was 111 % of control and the T/C (dose: 400.0 mg/kg/injection, schedule: Q01DX001 (ip), vehicle: saline) was 104 % of control. The T/C [8] was 104 % of control, the T/C (dose: 400.0 mg/kg/injection, schedule: Q04DX003 (ip), vehicle: acetone) was 103 % of control and the T/C (dose: 520.0 mg/kg/injection, schedule: Q01DX001 (ip), vehicle: Klucel (hydroxypropylcellulose) (HPC)) was 106 % of control.

In the case of `CC1N=C(c2ccc(N)cc2)OC1C` (configuration not stated), the T/C (dose: 100.0 mg/kg/injection, schedule: Q01DX001 (ip), vehicle: Klucel (hydroxypropylcellulose) (HPC)) was 102 % of control, the T/C (dose: 200.0 mg/kg/injection, schedule: Q01DX001 (ip), vehicle: Klucel (hydroxypropylcellulose) (HPC)) was 98 % of control and the T/C (dose: 400.0 mg/kg/injection, schedule: Q01DX001 (ip), vehicle: Klucel (hydroxypropylcellulose) (HPC)) was 100 % of control.

In the case of `NC(=O)c1ncn(C2OC(CO)C(O)C2O)c1N` (configuration not stated), the T/C (dose: 50.0 mg/kg/injection, schedule: Q01DX001 (ip), vehicle: saline) was 111 % of control, the T/C [2] was 111 % of control and the T/C [5] was 114 % of control.

With `C/C=C(/C(=O)NC(N)=O)C(C)C` the T/C (dose: 25.0 mg/kg/injection, schedule: Q01DX009 (ip), vehicle: Klucel (hydroxypropylcellulose) (HPC)) was 114 % of control, the T/C (dose: 50.0 mg/kg/injection, schedule: Q01DX009 (ip), vehicle: Klucel (hydroxypropylcellulose) (HPC)) was 97 % of control and the T/C [3] was 111 % of control. For the same compound, the T/C [6] was 103 % of control and the T/C [8] was 103 % of control.

`CC(=O)NC(CSC(=N)N)C(=O)O` (configuration not stated) was tested, and the T/C (dose: 50.0 mg/kg/injection, schedule: Q01DX001 (ip), vehicle: carboxymethylcellulose (CMC)) was 107 % of control, the T/C [1] was 98 % of control and the T/C [4] was 98 % of control. The T/C [7] was 102 % of control.

`CC(=O)Nc1ccc(OC(=O)Nc2ccc(F)c([N+](=O)[O-])c2)cc1` was tested, and the T/C [3] was 118 % of control and the T/C [6] was 112 % of control.
